{
  "source": "patent US20090181438A1",
  "about": "“OPTIMIZATION OF BIOFUEL PRODUCTION” (THE OHIO STATE UNIVERSITY RESEARCH FOUNDATION, priority 2007, published 2009)",
  "key": {"[1]": {"system": "cultures of Botryococcus braunii", "conditions": "cited from earlier work"}, "[2]": {"system": "Nannochloropsis sp. cultures", "experimental": "Variable fractions (0, 10%, 25%, and 50%) of identical 100 mL Nannochloropsis sp. cultures (n=2) were initially (arrows) mixed (15 min) with decane and exposed to an ultrasonic field (2 sec; 40 kHz water bath), decanted of solvent, then grown (F/2, 23° C., 24:0 of 100 μmol, 100 rpm, 33 ppt, 100 mL in 500 mL flasks). Further, variable timed treatments (arrows) at log-phase and stationary phases were also completed."}, "Nannochloropsis sp.": {"system": "Nannochloropsis sp.", "format": "cell-based", "description": "Under simulated outdoor growing conditions (30 ppt, 26-37° C., 14:10 of 1000 umol, F/2) 12 liter aquaria of Nannochloropsis sp., equipped with mixers and pH controlled (˜7.2) CO2 gas input, had 25% of culture volume removed daily which was variably (0-25% of total fraction) extracted of lipids with decane (15 min) and sonic (2 sec) energy, decanted of solvent, then returned to culture, while the remaining untreated fraction (0-25%) was removed, dried and extracted with hexane."}},
  "data": [
    {"smiles": "CCCCCC", "note": "[hexane]", "values": [
      {"measurement": "solvent toxicity / biocompatibility", "setting": "[1]", "value": "nontoxic"}
    ]},
    {"smiles": "CCCCCCCCCCO", "note": "[decanol]", "values": [
      {"measurement": "solvent toxicity / biocompatibility", "setting": "[1]", "value": "toxic"}
    ]},
    {"smiles": "CCCCCCCCCC", "note": "[decane]", "values": [
      {"measurement": "growth rate and resultant algal biomass compared to no treatment", "setting": "[2]", "value": "can positively affect growth rate and resultant algal biomass"},
      {"measurement": "growth rates and resultant culture biomass", "setting": "Nannochloropsis sp.", "value": "augment growth rates and the resultant culture biomass"},
      {"measurement": "tolerance of daily exposure to treatment", "setting": "Nannochloropsis sp.", "value": "tolerated"}
    ]},
    {"smiles": "CCCCCCC", "note": "[heptane]", "values": [
      {"measurement": "solvent toxicity / biocompatibility", "setting": "[1]", "value": "nontoxic"}
    ]},
    {"smiles": "CCCCCOCCCCC", "note": "[dipentyl ether]", "values": [
      {"measurement": "solvent toxicity / biocompatibility", "setting": "[1]", "value": "toxic"}
    ]}
  ]
}
